Experiments:
HepG2 cells [1] = test: Cell glucose uptake assay in HepG2 cells; assay type: cell-based, human; conditions: relative glucose uptake at 5 µM in HepG2 cells, 3 h, compared with original glucose concentration of the medium; na = not active at 5 µM
Protocol: (§1) The hepatocyte cell line HepG2 cells obtained from the Type Culture Collection of the Chinese Academy of Sciences (Shanghai, China) were maintained in high-glucose DMEM (Gibco) supplemented with 10% fetal bovine serum (FBS) and 1% penicillin-streptomycin in an atmosphere of 5% CO2 at 37 °C.
Into a 96-well plate, 5 × 10^3 HepG2 cells per well were seeded. After 48 h, phenol red-free DMEM (Gibco) with 1% FBS was transferred to deprive the cells overnight, and then the tested compounds dissolved in a glucose-HEPES buffer (glucose concentration was 100 µg/mL) at a concentration of 5 µM were added to the culture system. Three hours later, the culture supernatants were collected and the glucose concentrations were detected using the Glucose (GO) Assay Kit (Sigma-Aldrich Corp.). Compared with the original glucose concentration of the buffer, the relative glucose uptake was calculated.

[2] = MTT assay for cell viability (cytotoxicity); assay type: cell-based, human; conditions: human; HepG2 cells, 48 h incubation, MTT
Protocol: as §1
(§2) Into a 96-well plate, 1 × 10^3 HepG2 cells per well were seeded. After 24 h, stock solutions of test compounds in DMSO were diluted in DMEM to ≤0.1% final DMSO concentration. Cells were treated with various concentrations (2.5–25 µM) of tested compounds for 48 h, and the MTT solution (0.5 mg/mL) was added. After 4 h of incubation at 37 °C for MTT-formazan formation, the supernatant was discarded and 100 µL of DMSO was applied into each well to dissolve formazan crystals. Absorbance at 490 nm was determined spectrophotometrically by using a microplate reader (Epoch, BioTek Instruments, Inc., Winooski, VT, USA).

human GSK-3β = molecular target: T1, human GSK-3β (Homo sapiens, UniProt P49841); test: Inhibition of recombinant GSK-3β (Z-lyte assay); assay type: biochemical; conditions: for IC50: human GSK-3β, top concentration 30 μM
T1 construct: purchased Invitrogen
Protocol: The activity of recombinant GSK-3β (Invitrogen) was measured in a Z-lyte assay of Invitrogen. In this assay, 100 nL of the compound solution in DMSO was transferred to a 384-well assay plate (the compound got threefold serial dilution, and the top concentration of the compound was 30 μM in the final reaction mixture). Then 5 μL of an enzyme (2 nM) and Ser/Thr 9 peptide (4 μM) mixture was added. After the enzyme and peptide pre-incubation with the compound for 30 min at 23 °C, 5 μL of ATP (12 μM) solution was added. The plate was incubated for 60 min at 23 °C. The reaction was stopped with 5 μL of development reagent. Fluorescence signals were detected with Envision (PerkinElmer, America) after 30 min of incubation, and the emission ratio (RFU 460 nm/RFU 535 nm) was used to analyze the data. The relative IC50 was reported using four-parameter logistic fit of IDBS Xlfit software. The IC50 values were calculated using the following equation: %Phosphorylation = 1 - (Emission Ratio × F100%) - C100%/(C0% - C100%) + [Emission Ratio × (F100% - F0%)] where
Emission ratio = Coumarin/Fluorescein ratio of sample wells
C100% = Average coumarin emission signal of the 100% phos. control
C0% = Average coumarin emission signal of the 0% phos. control
F100% = Average fluorescein emission signal of the 100% phos. control
F0% = Average fluorescein emission signal of the 0% phos. control %Inhibition = {1 - %Phos Sample/%Phos 0%Inhibition Ctl}*100

HepG2 cells [3] = test: MTT assay for cell viability (cytotoxicity); assay type: cell-based, human
Protocol: as §1, §2

T1 sequence (P49841 whole entry): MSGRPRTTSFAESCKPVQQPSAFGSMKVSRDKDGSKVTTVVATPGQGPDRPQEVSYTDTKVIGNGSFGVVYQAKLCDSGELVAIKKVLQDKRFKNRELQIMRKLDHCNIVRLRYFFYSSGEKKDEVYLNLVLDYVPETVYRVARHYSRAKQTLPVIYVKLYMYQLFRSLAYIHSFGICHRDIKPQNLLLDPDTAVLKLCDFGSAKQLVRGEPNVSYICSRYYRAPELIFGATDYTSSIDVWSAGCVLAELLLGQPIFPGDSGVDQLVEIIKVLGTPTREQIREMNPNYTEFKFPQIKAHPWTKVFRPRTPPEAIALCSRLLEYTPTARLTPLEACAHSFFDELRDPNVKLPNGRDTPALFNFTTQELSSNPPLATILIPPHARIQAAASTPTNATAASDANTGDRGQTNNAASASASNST

Row | Structure (SMILES) | melting point [°C] | Cell Glucose Uptake (%) (HepG2 cells [1]) | CC50 at 48 h [2] [µM] | IC50 (human GSK-3β) [µM] | toxicity against HepG2 cells (in words) (HepG2 cells [3]) | inhibitory activity against GSK-3β at 30 µM (in words) (human GSK-3β)
1 | Cc1ccc(C(=O)Nc2ccc(-c3cnc(N)nc3-c3c[nH]c4ccc(Br)cc34)cc2)cc1 [A21, N-(4-(2-amino-4-(5-bromo-1H-indol-3-yl)pyrimidin-5-yl)phenyl)-4-methylbenzamide] | 291.7 to 292.4 | 24% | 6.9 |  |  | 
2 | COc1cccc(OC)c1Nc1nccc(-c2c[nH]c3ccc(Br)cc23)n1 [B31, 4-(5-Bromo-1H-indol-3-yl)-N-(2,6-dimethoxyphenyl) pyrimidin-2-amine] | 244.3 to 245.6 | 16% | 19.2 |  |  | 
3 | CC(C)c1ccccc1Nc1nccc(-c2c[nH]c3ccc(Br)cc23)n1 [B19, 4-(5-Bromo-1H-indol-3-yl)-N-(2-isopropylphenyl) pyrimidin-2-amine] | 110.5 to 111.3 | 13% | > 25 |  |  | 
4 | Brc1ccc(Nc2nccc(-c3c[nH]c4ccc(Br)cc34)n2)cc1 [B9, 4-(5-Bromo-1H-indol-3-yl)-N-(4-bromophenyl) pyrimidin-2-amine] | 276.7 to 277.5 | 12.6% | 20.3 |  |  | 
5 | Brc1ccc2[nH]cc(-c3ccnc(Nc4ccccc4Br)n3)c2c1 [B7, 4-(5-Bromo-1H-indol-3-yl)-N-(2-bromophenyl) pyrimidin-2-amine] | 177.8 to 178.4 | 26% | > 25 |  |  | 
6 | Clc1ccc(Nc2nccc(-c3c[nH]c4ccc(Br)cc34)n2)cc1 [B6, 4-(5-Bromo-1H-indol-3-yl)-N-(4-chlorophenyl) pyrimidin-2-amine] | 273.5 to 274.8 | 14.4% | 21.1 |  |  | 
7 | Fc1cccc(Nc2nccc(-c3c[nH]c4ccc(Br)cc34)n2)c1 [B2, 4-(5-Bromo-1H-indol-3-yl)-N-(3-fluorophenyl) pyrimidin-2-amine] | 211.8 to 212.4 | no change | 10.7 |  |  | 
8 | Fc1ccccc1Nc1nccc(-c2c[nH]c3ccc(Br)cc23)n1 [B1, 4-(5-Bromo-1H-indol-3-yl)-N-(2-fluorophenyl) pyrimidin-2-amine] | 206.6 to 207.1 | 20% | 10.5 |  |  | 
9 | FC(F)(F)c1ccccc1Nc1nccc(-c2c[nH]c3ccc(Br)cc23)n1 [B10, 4-(5-Bromo-1H-indol-3-yl)-N-(2-(trifluoromethyl)phenyl) pyrimidin-2-amine] | 150.5 to 151.3 | 20.2% | > 25 |  |  | 
10 | Cc1cccc(C)c1Nc1nccc(-c2c[nH]c3ccc(Br)cc23)n1 [B30, 4-(5-Bromo-1H-indol-3-yl)-N-(2,6-dimethylphenyl) pyrimidin-2-amine] | 228.5 to 229.4 | 38% | 18.1 | 24.4 | no significant toxicity | 
11 | Nc1ncc(-c2ccc(NC(=O)c3cc(Cl)cc(Cl)c3)cc2)c(-c2c[nH]c3ccc(Br)cc23)n1 [A26, N-(4-(2-amino-4-(5-bromo-1H-indol-3-yl)pyrimidin-5-yl)phenyl)-3,5-dichlorobenzamide] | 177.7 to 178.5 | 22% | 14.3 | > 30 |  | no apparent inhibitory activity
12 | Cn1sc(=O)n(Cc2ccccc2)c1=O [TDZD-8, 4-benzyl-2-methyl-1,2,4-thiadiazolidine-3,5-dione, reference compound] |  | 16% | > 25 |  |  | 
13 | COc1ccccc1Nc1nccc(-c2c[nH]c3ccc(Br)cc23)n1 [B16, 4-(5-Bromo-1H-indol-3-yl)-N-(2-methoxyphenyl) pyrimidin-2-amine] | 207.9 to 208.3 | 17% | 21.4 |  |  | 
14 | Nc1ncc(-c2ccc(NC(=O)c3ccccc3Br)cc2)c(-c2c[nH]c3ccc(Br)cc23)n1 [A13, N-(4-(2-amino-4-(5-bromo-1H-indol-3-yl)pyrimidin-5-yl)phenyl)-2-bromobenzamide] | 147.4 to 148.3 | 27% | > 25 | > 30 |  | no apparent inhibitory activity
15 | Clc1ccccc1Nc1nccc(-c2c[nH]c3ccc(Br)cc23)n1 [B4, 4-(5-Bromo-1H-indol-3-yl)-N-(2-chlorophenyl) pyrimidin-2-amine] | 173.8 to 174.6 | 22% | > 25 |  |  | 
16 | Nc1nccc(-c2c[nH]c3ccc(Br)cc23)n1 [meridianin C] |  | < 5% | 13 |  |  | 
17 | Nc1ncc(-c2ccc(NC(=O)c3ccccc3Cl)cc2)c(-c2c[nH]c3ccc(Br)cc23)n1 [A10, N-(4-(2-amino-4-(5-bromo-1H-indol-3-yl)pyrimidin-5-yl)phenyl)-2-chlorobenzamide] | 211.5 to 212.4 |  | 18.4 |  |  | 
18 | Nc1ncc(-c2ccc(NC(=O)c3ccc(Br)cc3)cc2)c(-c2c[nH]c3ccc(Br)cc23)n1 [A15, N-(4-(2-amino-4-(5-bromo-1H-indol-3-yl)pyrimidin-5-yl)phenyl)-4-bromobenzamide] | 276.4 to 277.3 |  | 7.1 |  |  | 
19 | Fc1ccc(Nc2nccc(-c3c[nH]c4ccc(Br)cc34)n2)cc1 [B3, 4-(5-Bromo-1H-indol-3-yl)-N-(4-fluorophenyl) pyrimidin-2-amine] | 246.8 to 247.7 | 7.4% | 12.8 |  |  | 
20 | CCCC(=O)Nc1ccc(-c2cnc(N)nc2-c2c[nH]c3ccc(Br)cc23)cc1 [A2, N-(4-(2-amino-4-(5-bromo-1H-indol-3-yl)pyrimidin-5-yl)phenyl) Butyramide] | 187.6 to 188.3 |  | > 25 |  |  | 
21 | Fc1cc(F)cc(Nc2nccc(-c3c[nH]c4ccc(Br)cc34)n2)c1 [B23, 4-(5-Bromo-1H-indol-3-yl)-N-(3,5-difluorophenyl) pyrimidin-2-amine] | 251.3 to 252.2 |  | 16.1 |  |  | 
22 | CCC(=O)Nc1ccc(-c2cnc(N)nc2-c2c[nH]c3ccc(Br)cc23)cc1 [A1, N-(4-(2-amino-4-(5-bromo-1H-indol-3-yl)pyrimidin-5-yl)phenyl) Propionamide] | 193.6 to 194.2 |  | 16.7 |  |  | 
23 | CC(C)C(=O)Nc1ccc(-c2cnc(N)nc2-c2c[nH]c3ccc(Br)cc23)cc1 [A3, N-(4-(2-amino-4-(5-bromo-1H-indol-3-yl)pyrimidin-5-yl)phenyl) Isobutyramide] | 172.6 to 173.3 |  | 10.8 |  |  | 
24 | COc1cccc(C(=O)Nc2ccc(-c3cnc(N)nc3-c3c[nH]c4ccc(Br)cc34)cc2)c1 [A23, N-(4-(2-amino-4-(5-bromo-1H-indol-3-yl)pyrimidin-5-yl)phenyl)-3-methoxybenzamide] | 172.6 to 173.3 |  | 14.7 |  |  | 
25 | Cc1cccc(C(=O)Nc2ccc(-c3cnc(N)nc3-c3c[nH]c4ccc(Br)cc34)cc2)c1 [A20, N-(4-(2-amino-4-(5-bromo-1H-indol-3-yl)pyrimidin-5-yl)phenyl)-3-methylbenzamide] | 211.8 to 212.9 |  | 13.2 |  |  | 
26 | Cc1ccccc1Nc1nccc(-c2c[nH]c3ccc(Br)cc23)n1 [B13, 4-(5-Bromo-1H-indol-3-yl)-N-(o-tolyl) pyrimidin-2-amine] | 187.6 to 188.4 | 14.9% | > 25 |  |  | 
27 | COc1ccc(Nc2nccc(-c3c[nH]c4ccc(Br)cc34)n2)cc1 [B18, 4-(5-Bromo-1H-indol-3-yl)-N-(4-methoxyphenyl) pyrimidin-2-amine] | 245.7 to 246.3 | 6.1% | 6 |  |  | 
